Experimental data taken from PubChem BioAssay (NCI).
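Five compound concentrations were applied to cells in 96-well plates for 48 hours; endpoints were derived by simple linear interpolation of the resulting dose-response curve. Definition used: TGI = concentration required for complete inhibition of growth.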

Legend:
Test in all cases: growth of human tumour cells (NCI), 48 h
SR leukemia = tested on: SR leukemia
HT29 colon = tested on: HT29 colon
SNB-75 CNS = tested on: SNB-75 CNS
ACHN renal = tested on: ACHN renal
MDA-MB-435 = tested on: MDA-MB-435
NCI-H23 lung = tested on: NCI-H23 lung
CCRF-CEM leukemia = tested on: CCRF-CEM leukemia
PC-3 prostate = tested on: PC-3 prostate
SF-295 CNS = tested on: SF-295 CNS
EKVX NSCLC = tested on: EKVX NSCLC
786-0 renal = tested on: 786-0 renal
SK-MEL-28 melanoma = tested on: SK-MEL-28 melanoma
NCI-H460 lung = tested on: NCI-H460 lung
OVCAR-5 ovarian = tested on: OVCAR-5 ovarian
MCF7 breast = tested on: MCF7 breast
IGROV1 ovarian = tested on: IGROV1 ovarian
U251 CNS = tested on: U251 CNS
SF-268 CNS = tested on: SF-268 CNS
SF-539 CNS = tested on: SF-539 CNS
NCI-H522 lung = tested on: NCI-H522 lung
LOX IMVI melanoma = tested on: LOX IMVI melanoma
TK-10 renal = tested on: TK-10 renal
HCC-2998 colon = tested on: HCC-2998 colon
A498 renal = tested on: A498 renal
UACC-257 melanoma = tested on: UACC-257 melanoma
MDA-MB-231 breast = tested on: MDA-MB-231 breast
UO-31 renal = tested on: UO-31 renal
HOP-62 NSCLC = tested on: HOP-62 NSCLC
OVCAR-8 ovarian = tested on: OVCAR-8 ovarian
MOLT-4 leukemia = tested on: MOLT-4 leukemia
MDA-N = tested on: MDA-N
T-47D breast = tested on: T-47D breast
KM12 colon = tested on: KM12 colon
HL-60(TB) leukemia = tested on: HL-60(TB) leukemia
CAKI-1 renal = tested on: CAKI-1 renal
HCT-116 colon = tested on: HCT-116 colon
K-562 leukemia = tested on: K-562 leukemia
RPMI-8226 leukemia = tested on: RPMI-8226 leukemia
HCT-15 colon = tested on: HCT-15 colon
DU-145 prostate = tested on: DU-145 prostate
RXF 393 renal = tested on: RXF 393 renal
SN12C renal = tested on: SN12C renal
M14 melanoma = tested on: M14 melanoma
A549 NSCLC = tested on: A549 NSCLC
SK-OV-3 ovarian = tested on: SK-OV-3 ovarian
MALME-3M melanoma = tested on: MALME-3M melanoma
HOP-92 NSCLC = tested on: HOP-92 NSCLC
OVCAR-4 ovarian = tested on: OVCAR-4 ovarian
COLO 205 colon = tested on: COLO 205 colon
NCI-H226 lung = tested on: NCI-H226 lung
HS 578T breast = tested on: HS 578T breast
SNB-19 CNS = tested on: SNB-19 CNS
NCI/ADR-RES ovarian = tested on: NCI/ADR-RES ovarian
SK-MEL-2 melanoma = tested on: SK-MEL-2 melanoma
SK-MEL-5 melanoma = tested on: SK-MEL-5 melanoma
OVCAR-3 ovarian = tested on: OVCAR-3 ovarian
SW-620 colon = tested on: SW-620 colon
UACC-62 melanoma = tested on: UACC-62 melanoma
BT-549 breast = tested on: BT-549 breast

Work on `COC(=O)c1ccccc1CC(Cc1ccc2c(c1)CCC2)C(=O)OC` (stereo not drawn) yielded a TGI (SR leukemia) greater than 100 µM, a TGI (HT29 colon) greater than 100 µM and a TGI (SNB-75 CNS) greater than 100 µM. The TGI (ACHN renal) was greater than 100 µM, the TGI (MDA-MB-435) was greater than 100 µM and the TGI (NCI-H23 lung) was greater than 100 µM. The TGI (CCRF-CEM leukemia) was greater than 100 µM, the TGI (PC-3 prostate) was greater than 100 µM and the TGI (SF-295 CNS) was greater than 100 µM. The TGI (EKVX NSCLC) was greater than 100 µM, the TGI (786-0 renal) was greater than 100 µM and the TGI (SK-MEL-28 melanoma) was greater than 100 µM. The TGI (NCI-H460 lung) was greater than 100 µM, the TGI (OVCAR-5 ovarian) was greater than 100 µM and the TGI (MCF7 breast) was greater than 100 µM. For the same compound, the TGI (IGROV1 ovarian) was greater than 100 µM, the TGI (U251 CNS) was greater than 100 µM and the TGI (SF-268 CNS) was greater than 100 µM. For the same compound, the TGI (SF-539 CNS) was greater than 100 µM, the TGI (NCI-H522 lung) was greater than 100 µM and the TGI (LOX IMVI melanoma) was greater than 100 µM. For the same compound, the TGI (TK-10 renal) was greater than 100 µM, the TGI (HCC-2998 colon) was greater than 100 µM and the TGI (A498 renal) was greater than 100 µM. The TGI (UACC-257 melanoma) was greater than 100 µM, the TGI (MDA-MB-231 breast) was greater than 100 µM and the TGI (UO-31 renal) was greater than 100 µM. The TGI (HOP-62 NSCLC) was greater than 100 µM, the TGI (OVCAR-8 ovarian) was greater than 100 µM and the TGI (MOLT-4 leukemia) was greater than 100 µM. For the same compound, the TGI (MDA-N) was greater than 100 µM, the TGI (T-47D breast) was greater than 100 µM and the TGI (KM12 colon) was greater than 100 µM. The TGI (HL-60(TB) leukemia) was greater than 100 µM, the TGI (CAKI-1 renal) was greater than 100 µM and the TGI (HCT-116 colon) was greater than 100 µM. The TGI (K-562 leukemia) was greater than 100 µM, the TGI (RPMI-8226 leukemia) was greater than 100 µM and the TGI (HCT-15 colon) was greater than 100 µM. The TGI (DU-145 prostate) was greater than 100 µM, the TGI (RXF 393 renal) was greater than 100 µM and the TGI (SN12C renal) was greater than 100 µM. The TGI (M14 melanoma) was greater than 100 µM, the TGI (A549 NSCLC) was greater than 100 µM and the TGI (SK-OV-3 ovarian) was greater than 100 µM. The TGI (MALME-3M melanoma) was greater than 100 µM, the TGI (HOP-92 NSCLC) was greater than 100 µM and the TGI (OVCAR-4 ovarian) was greater than 100 µM. For the same compound, the TGI (COLO 205 colon) was greater than 100 µM, the TGI (NCI-H226 lung) was greater than 100 µM and the TGI (HS 578T breast) was greater than 100 µM. For the same compound, the TGI (SNB-19 CNS) was greater than 100 µM, the TGI (NCI/ADR-RES ovarian) was greater than 100 µM and the TGI (SK-MEL-2 melanoma) was greater than 100 µM. For the same compound, the TGI (SK-MEL-5 melanoma) was 84.1 µM, the TGI (OVCAR-3 ovarian) was greater than 100 µM and the TGI (SW-620 colon) was greater than 100 µM.

`CCCN(CCC)C(=S)N/N=C/c1ccccn1` showed a TGI (SR leukemia) of 0.247 µM, a TGI (HT29 colon) greater than 37.4 µM and a TGI (SNB-75 CNS) of 0.413 µM. For the same compound, the TGI (ACHN renal) was 0.384 µM, the TGI (MDA-MB-435) was 18.8 µM and the TGI (NCI-H23 lung) was 19.5 µM. It also gave a TGI (CCRF-CEM leukemia) of 0.255 µM, a TGI (PC-3 prostate) of 16.1 µM and a TGI (SF-295 CNS) of 21.7 µM. It also gave a TGI (EKVX NSCLC) of 11.3 µM, a TGI (786-0 renal) of 1.07 µM and a TGI (SK-MEL-28 melanoma) greater than 63.9 µM. For the same compound, the TGI (NCI-H460 lung) was 0.187 µM, the TGI (OVCAR-5 ovarian) was 21.4 µM and the TGI (UACC-62 melanoma) was 1.91 µM. The TGI (U251 CNS) was greater than 25.4 µM, the TGI (SF-539 CNS) was 0.734 µM and the TGI (NCI-H522 lung) was 1.67 µM. It also gave a TGI (LOX IMVI melanoma) of 13.4 µM, a TGI (TK-10 renal) of 15.1 µM and a TGI (HCC-2998 colon) of 19.6 µM. It also gave a TGI (A498 renal) of 4.03 µM, a TGI (UACC-257 melanoma) of 0.195 µM and a TGI (UO-31 renal) of 4 µM. It also gave a TGI (HOP-62 NSCLC) of 3.18 µM, a TGI (OVCAR-8 ovarian) of 11.9 µM and a TGI (MDA-N) of 14.8 µM. For the same compound, the TGI (KM12 colon) was 16.1 µM, the TGI (HL-60(TB) leukemia) was 0.207 µM and the TGI (CAKI-1 renal) was 15.9 µM. It also gave a TGI (HCT-116 colon) of 1.58 µM, a TGI (BT-549 breast) of 22.5 µM and a TGI (RPMI-8226 leukemia) of 0.566 µM. The TGI (HCT-15 colon) was 16.8 µM, the TGI (DU-145 prostate) was greater than 43.8 µM and the TGI (RXF 393 renal) was 3.41 µM. It also gave a TGI (SN12C renal) of 0.678 µM, a TGI (M14 melanoma) of 0.281 µM and a TGI (A549 NSCLC) of 11.9 µM. The TGI (SK-OV-3 ovarian) was 28.6 µM, the TGI (MALME-3M melanoma) was 6.05 µM and the TGI (HOP-92 NSCLC) was 26.7 µM. For the same compound, the TGI (OVCAR-4 ovarian) was 0.9 µM, the TGI (COLO 205 colon) was 0.509 µM and the TGI (NCI-H226 lung) was 1.14 µM. For the same compound, the TGI (HS 578T breast) was greater than 100 µM, the TGI (SNB-19 CNS) was 32.1 µM and the TGI (NCI/ADR-RES ovarian) was less than 0.0354 µM. It also gave a TGI (SK-MEL-2 melanoma) of 14.9 µM, a TGI (SK-MEL-5 melanoma) of 0.954 µM and a TGI (SW-620 colon) of 28.6 µM.
